Columns and labels:
[1] = test system: Wnt activity (Sp5-Luc reporter, SW480 colon carcinoma cells); test: Sp5-Luc Wnt reporter gene assay; assay type: cell-based; details: Homo sapiens, FIG. 14
Excerpt: The compound of Formula (I) was screened for Wnt activity. The screening assay is described as follows. Reporter cell lines were generated by stably transducing cancer cell lines (e.g., colon cancer) or primary cells (e.g., IEC-6 intestinal cells) with a lentiviral construct that included a Wnt-responsive promoter driving expression of the firefly luciferase gene.
SW480 colon carcinoma cells were transduced with a lentiviral vector expressing luciferase with a human Sp5 promoter consisting of a sequence of eight TCF/LEF binding sites. SW480 cells stably expressing the Sp5-Luc reporter gene and a hygromycin resistant gene were selected by treatment with 150 μg/mL of hygromycin for 7 days. These stably transduced SW480 cells were expanded in cell culture and used for all further screening activities. […] Following incubation, 20 μL of BrightGlo luminescence reagent (Promega) was added to each well of the 384-well assay plates. The plates were placed on an orbital shaker for 2 min and then luminescence was quantified using the Envision (Perkin Elmer) plate reader. Readings were normalized to DMSO-only treated cells, and normalized activities were utilized for EC50 calculations using the dose-response log (inhibitor) vs. response—variable slope (four parameters) nonlinear regression feature available in GraphPad Prism 5.0 (or Dotmatics).

Human MSCs = test: Chondrogenesis induction, Rhodamine B and Nile Red staining; assay type: cell-based
Experimental: Human MSCs were plated in 96-well plates in chondrogenic induction medium (Lonza; DMEM, dexamethasone, ascorbate, insulin-transferrin-selenium [ITS supplement], gentamycin-amphotericin [GA-1000], sodium pyruvate, proline and L-glutamine) and treated with the compound of Formula (I) in DMSO or TGFβ3 (20 μg/mL) as a positive control. Cells were incubated at 37° C., 5% CO2 for either 7 or 21 days, with media changes every 5 days. The cells were fixed using 4% formaldehyde (Electron Microscopy Sciences), and stained with 2 μg/mL Rhodamine B (Sigma-Aldrich) and 20 μM Nile Red (Sigma-Aldrich) (Johnson et al. (2012) Science 336(6082):717-721). The nodules were imaged (25 images per well for 96 well plates at 10× magnification) by excitation at 531 nm and emission at 625 nm and quantified using the Celllnsight CX5 (Thermo Scientific). The number of nodules in each well was normalized to the average of 6 DMSO treated wells on the same plate using Excel (Microsoft Inc.). The normalized averages (fold change over DMSO) of 6 replicate wells for each compound concentration were calculated.

Structure (SMILES): CC(C)CC(=O)Nc1cncc(-c2ccc3[nH]nc(-c4nc5c(-c6cccc(F)c6)cncc5[nH]4)c3c2)c1 [compound of Formula (I)]
- EC50 [1]: 2 nM
- chondrocyte colonies/well (Human MSCs; 1.88 nM to 30 nM, FIG. 17): dose-dependent chondrogenesis
- chondrogenesis (Nile Red and Rhodamine B staining) (Human MSCs; human MSCs, 7 or 21 days, fold change over DMSO, FIGS. 16A, 16B): dose dependent increase in chondrogenesis
